Data on 2 compounds can be found in patent EP2594271A1, “2-[(3,5-difluoro-3'-methoxy-1,1'-biphenyl-4-yl)amino]nicotinic acid for the treatment of psoriasis” (Almirall, S.A., priority 2011, dated 2013).

In data set [1] the test system is peripheral blood mononuclear cells. The data set is described as follows: in vitro assay using peripheral blood mononuclear cells. Particulars: compared with leflunomide. The data set is classed as cell-based.
Details of data set [2]: species or system mice. To be noted: mouse, in vivo, ip.
Another data set has as its system epidermal hyperplasia. The data set is described as follows: rat model of TPA-induced epidermal hyperplasia. In kind it is in vivo, Wistar rats. To be noted: rat dorsal skin. As for the experimental part:
A rat model of epidermal hyperplasia was used to test the pharmacological activity of 2-[(3,5-difluoro-3'-methoxy-1,1'-biphenyl-4-yl)amino]nicotinic acid.
Wistar rats (200- 250 g) were obtained from Harland (Sant Feliu de Codines, Spain) and maintained in standard Chow diet with light:dark cycles and allowed to feed ad libitum during all procedures. TPA (12-O-tetradecanoylphorbol-13-acetate) was purchased from Sigma Chemicals and a stock solution of 10 mg/ml was prepared in acetone.
On the morning of day 1, the back of each animal (n=5) was shaved so that at least three 2x2 sq cm nude skin areas were uncovered. Six hours later, 200 µL of acetone (vehicle) or a solution of TPA ([…]) in acetone was applied onto the skin by employing a silicone pad in which three 2x2 sq cm areas had been cut out. Area A received acetone (vehicle), whereas B and C received TPA. Twenty-four hours after TPA application, a solution of the active ingredient 2-[(3,5-difluoro-3'-methoxy-1,1'-biphenyl-4-yl)amino]nicotinic acid (1% in acetone) was applied to area C, whereas the remainder areas received acetone. Treatment continued for 7 days with daily application of 2-[(3,5-difluoro-3'-methoxy-1,1'-biphenyl-4-yl)amino]nicotinic acid or acetone. Six hours after last application, animals were sacrificed and skin was excised and processed for histological examination using H/E staining. Hyperplasia was evaluated following a score of 0 (normal skin thickness, 2-3 layers) to 3 (marked hyperplastic epidermis, >8 cell layers) by a blinded expert pathologist.

A further data set has as its system psoriasis. To be noted: 190 subjects with active psoriatic arthritis and psoriasis, 24 weeks; people with mild to moderate psoriasis; cited from earlier work.
Setting [3] is: topical 1% in acetone, 7 applications, histology day 8.

Entries after “also recorded” stand apart in the source; their conditions may differ.

Take `COc1cccc(-c2cc(F)c(Nc3ncccc3C(=O)O)c(F)c2)c1` [2-[(3,5-difluoro-3'-methoxy-1,1'-biphenyl-4-yl)amino]nicotinic acid]: the potency result in data set [1] is given as “much higher potency than leflunomide”. In addition, in data set [2], the “levels of bilirrubin in plasma” value is reported as “does not show an increase” and the “levels of transaminases in plasma” value was “does not show an increase”. Also, in the data set with epidermal hyperplasia (setting [3]), the “inflammation induced by TPA (dermal)” value is “counteracts; also recorded: able to reduce epidermal hyperplasia and dermal inflammation”; the “mixed perivascular mononuclear infiltration (macrophages, lymphocytes and mastocytes)” value is on record as “greatly diminished”. Further, the “hyperplasia (histological score 0 to 3)” value in the data set with epidermal hyperplasia (topical once daily application of 1% in acetone for 7 days, H/E staining, day 8) was “reverted; also recorded: counteracts; also recorded: able to reduce epidermal hyperplasia”.

As for `Cc1oncc1C(=O)Nc1ccc(C(F)(F)F)cc1` [leflunomide, 4-Isoxazolecarboxamide, 5-methyl-N-[4-(trifluoromethyl)phenyl]-], the “benefit compared with placebo” value with psoriasis is “only a moderate benefit compared with placebo”.
